The values below are quoted from earlier work in patent publication US8785426B1, “Testosterone gel compositions and related methods” (Upsher-Smith Laboratories, Inc., priority 2013, dated 2014).

For the series the following is noted: reported solubility.

As for `C[C@]12CC[C@H]3[C@@H](CCC4=CC(=O)CC[C@@]43C)[C@@H]1CC[C@@H]2O` [Testosterone, 17-β-hydroxyandrost-4-en-3-one], the “solubility in ethyl alcohol” value is recorded as 0.17 grams per gram ethyl alcohol.
